Measurements: US20180213779A1, “PESTICIDALLY ACTIVE HETEROCYCLIC DERIVATIVES WITH SULPHUR CONTAINING SUBSTITUENTS” (SYNGENTA PARTICIPATIONS AG, priority 2015, published 2018)

How the values were obtained:
[1] = tested on: Spodoptera littoralis (Egyptian Cotton Leaf Worm); experiment: Example B4: Activity against Spodoptera littoralis (sprayed cotton leaf discs); assay type: in vivo; settings: foliar, 72 h, application rate of 200 ppm, L1 larvae, 3 days after infestation
Procedure: Example B4: Activity Against Spodoptera littoralis (Egyptian Cotton Leaf Worm)
Cotton leaf discs were placed on agar in 24-well microtiter plates and sprayed with aqueous test solutions prepared from 10′000 ppm DMSO stock solutions. After drying the leaf discs were infested with five L1 larvae. The samples were assessed for mortality, anti-feedant effect, and growth inhibition in comparison to untreated samples 3 days after infestation. Control of Spodoptera littoralis by a test sample is given when at least one of the categories mortality, anti-feedant effect, and growth inhibition is higher than the untreated sample.

[2] = tested on: Diabrotica balteata (Corn Root Worm); experiment: Example B6: Activity against Diabrotica balteata (sprayed maize sprouts); assay type: in vivo; settings: 96 h, application rate of 200 ppm, L2 larvae, 4 days after infestation, read-out: effect in at least one of the two categories (mortality or growth inhibition)
Procedure: Example B6: Activity Against Diabrotica Balteata (Corn Root Worm)
Maize sprouts placed onto an agar layer in 24-well microtiter plates were treated with aqueous test solutions prepared from 10′000 ppm DMSO stock solutions by spraying. After drying, the plates were infested with L2 larvae (6 to 10 per well). The samples were assessed for mortality and growth inhibition in comparison to untreated samples 4 days after infestation.

[3] = tested on: Plutella xylostella (Diamond-Back Moth); experiment: Example B3: Plutella xylostella larvicide, feeding/contact activity, preventative (artificial diet, 96-well); assay type: in vivo; settings: 216 h, application rate of 500 ppm, mortality assessed 9 days after treatment
Procedure: Example B3: Plutella xylostella (Diamond-Back Moth) larvicide, feeding/contact activity, preventative Artificial diet was dispensed into a 96-well microtiter plate and treated with aqueous test solutions prepared from 10′000 ppm DMSO stock solutions. Eggs were suspended above the treated diet and first instar larvae hatched onto the diet. Mortality was assessed 9 days after treatment.

[4] = tested on: Plutella xylostella (Diamond Back Moth); experiment: Example B11: Activity against Plutella xylostella (artificial diet, 24-well, L2 larvae); assay type: in vivo; settings: 120 h, application rate of 200 ppm, 5 days after infestation, read-out: effect in at least one of the two categories (mortality or growth inhibition)
Procedure: Example B11: Activity Against Plutella xylostella (Diamond Back Moth)
24-well microtiter plates with artificial diet were treated with aqueous test solutions prepared from 10′000 ppm DMSO stock solutions by pipetting. After drying, the plates were infested with L2 larvae (10 to 15 per well). The samples were assessed for mortality and growth inhibition in comparison to untreated samples 5 days after infestation.

[5] = tested on: Euschistus heros (Neotropical Brown Stink Bug); experiment: Example B7: Activity against Euschistus heros (sprayed soybean leaves); assay type: in vivo; settings: 120 h, application rate of 200 ppm, N2 nymphs, 5 days after infestation, read-out: effect in at least one of the two categories (mortality or growth inhibition)
Procedure: Example B7: Activity Against Euschistus heros (Neotropical Brown Stink Bug)
Soybean leaves on agar in 24-well microtiter plates were sprayed with aqueous test solutions prepared from 10′000 ppm DMSO stock solutions. After drying the leaves were infested with N2 nymphs. The samples were assessed for mortality and growth inhibition in comparison to untreated samples 5 days after infestation.

[6] = tested on: Myzus persicae (Green Peach Aphid); experiment: Example B8: Activity against Myzus persicae (sprayed sunflower leaf discs); assay type: in vivo; settings: foliar, 144 h, application rate of 200 ppm, mixed ages, 6 days after infestation
Procedure: Example B8: Activity Against Myzus persicae (Green Peach Aphid)
Sunflower leaf discs were placed onto agar in a 24-well microtiter plate and sprayed with aqueous test solutions prepared from 10′000 ppm DMSO stock solutions. After drying, the leaf discs were infested with an aphid population of mixed ages. The samples were assessed for mortality 6 days after infestation.

[7] = tested on: Spodoptera littoralis (Egyptian Cotton Leaf Worm); experiment: Example B5: Activity against Spodoptera littoralis (systemic, lettuce grown on treated agar); assay type: in vivo; settings: 144 h, test rate of 12.5 ppm, 6 days after infestation, uptake by lettuce roots, read-out: effect in at least one of the three categories (mortality, anti-feeding, or growth inhibition)
Excerpt: Example B5: Activity Against Spodoptera littoralis (Egyptian Cotton Leaf Worm)
Test compounds were applied by pipette from 10′000 ppm DMSO stock solutions into 24-well plates and mixed with agar. Lettuce seeds were placed onto the agar and the multi well plate was closed by another plate which contained also agar. After 7 days the compound was absorbed by the roots and the lettuce grew into the lid plate. The lettuce leaves were then cut off into the lid plate. Spodoptera eggs were pipetted through a plastic stencil onto a humid gel blotting paper and the lid plate was closed with it. The samples were assessed for mortality, anti-feedant effect and growth inhibition in comparison to untreated samples 6 days after infestation.

[8] = tested on: Myzus persicae (Green Peach Aphid); experiment: Example B9: Activity against Myzus persicae (roots of pea seedlings in test solutions); assay type: in vivo; settings: 144 h, test rate of 24 ppm, mixed ages, 6 days after placing seedlings into test solutions
Procedure: Example B9: Activity Against Myzus persicae (Green Peach Aphid)
Roots of pea seedlings infested with an aphid population of mixed ages were placed directly into aqueous test solutions prepared from 10′000 DMSO stock solutions. The samples were assessed for mortality 6 days after placing seedlings into test solutions.

Row | melting point [°C] | Structure (SMILES) | effect (mortality or growth inhibition) at 200 ppm [2] [%] | pest or weed control at 500 ppm [3] [%] | also measured
1 | 212 to 213 | CCS(=O)(=O)c1cc(C(F)(F)F)cnc1-c1cn(-c2ccc(C(F)(F)F)cc2)nn1 [Compound P2, 3-(ethylsulfonyl)-5-(trifluoromethyl)-2-(1-(4-(trifluoromethyl)phenyl)-1H-1,2,3-triazol-4-yl)pyridine] |  |  | 
2 |  | CCS(=O)(=O)c1cc(C(F)(F)F)cnc1-c1nnc(-c2ccc(C(F)(F)F)cc2)o1 [Compound P3] |  |  | percent control (mortality, anti-feedant effect or growth inhibition) at 200 ppm [1]: ≥ 80%
3 |  | CCS(=O)(=O)c1cc(C(F)(F)F)cnc1-c1nnc(-c2cc(C(F)(F)F)ccn2)o1 [Compound P5, 2-[3-ethylsulfonyl-5-(trifluoromethyl)-2-pyridyl]-5-[4-(trifluoromethyl)-2-pyridyl]-1,3,4-oxadiazole] | ≥ 80 |  | 
4 |  | CCS(=O)(=O)c1cc(C(F)(F)F)ccc1-c1nnc(-c2ccc(C(F)(F)F)nc2)o1 [Compound P7] |  | ≥ 70 | 
5 |  | CCS(=O)(=O)c1cc(C(F)(F)F)cnc1-c1noc(-c2ccc(C(F)(F)F)cc2)c1C [Compound P8] |  | ≥ 70 | 
6 | 145 to 146 | CCSc1cc(C(F)(F)F)cnc1-c1cc(-c2ccc(C(F)(F)F)cc2)on1 [Compound P11, 3-(3-ethylsulfanyl-5-(trifluoromethyl)pyridin-2-yl)-5-(4-(trifluoromethyl)phenyl)-isoxazole] |  |  | 
7 |  | CCS(=O)(=O)c1cc(-c2ccc(Cl)cc2)cnc1-c1cn(-c2cccc(C(F)(F)F)c2)nn1 [Compound P13, 5-(4-chlorophenyl)-3-ethylsulfonyl-2-[1-[3-(trifluoromethyl)phenyl]triazol-4-yl]pyridine] | ≥ 80 | ≥ 70 | percent control (mortality, anti-feedant effect or growth inhibition) at 200 ppm [1]: ≥ 80%; percent effect (mortality or growth inhibition) at 200 ppm [4]: ≥ 80%
8 |  | CCSc1cccnc1-c1cn(-c2cccc(C(F)(F)F)c2)nn1 [Compound P14] | ≥ 80 | ≥ 70 | percent effect (mortality or growth inhibition) at 200 ppm [5]: ≥ 80%; mortality at 200 ppm [6]: ≥ 80%; percent effect (mortality or growth inhibition) at 200 ppm [4]: ≥ 80%
9 |  | CCS(=O)(=O)c1cccnc1-c1cn(-c2cccc(C(F)(F)F)c2)nn1 [Compound P15] | ≥ 80 | ≥ 70 | percent control (mortality, anti-feedant effect or growth inhibition) at 200 ppm [1]: ≥ 80%; percent effect (mortality, anti-feeding or growth inhibition) at 12.5 ppm [7]: ≥ 80%; percent effect (mortality or growth inhibition) at 200 ppm [5]: ≥ 80%; mortality at 200 ppm [6]: ≥ 80%; percent effect (mortality or growth inhibition) at 200 ppm [4]: ≥ 80%
10 |  | CCSc1cccnc1-c1cn(-c2ccc(C(F)(F)F)cc2)nn1 [Compound P16, 3-ethylsulfanyl-2-[1-[4-(trifluoromethyl)phenyl]triazol-4-yl]pyridine] |  | ≥ 70 | percent effect (mortality or growth inhibition) at 200 ppm [4]: ≥ 80%
11 |  | CCS(=O)(=O)c1cccnc1-c1cn(-c2ccc(C(F)(F)F)cc2)nn1 [Compound P17, 3-ethylsulfonyl-2-[1-[4-(trifluoromethyl)phenyl]triazol-4-yl]pyridine] | ≥ 80 | ≥ 70 | percent control (mortality, anti-feedant effect or growth inhibition) at 200 ppm [1]: ≥ 80%; percent effect (mortality or growth inhibition) at 200 ppm [5]: ≥ 80%; percent effect (mortality or growth inhibition) at 200 ppm [4]: ≥ 80%
12 |  | CCS(=O)(=O)c1cccnc1-c1cn(-c2cncc(C(F)(F)F)c2)nn1 [Compound P20] | ≥ 80 | ≥ 70 | percent control (mortality, anti-feedant effect or growth inhibition) at 200 ppm [1]: ≥ 80%; percent effect (mortality, anti-feeding or growth inhibition) at 12.5 ppm [7]: ≥ 80%; mortality at 200 ppm [6]: ≥ 80%; mortality at 24 ppm [8]: ≥ 80%; percent effect (mortality or growth inhibition) at 200 ppm [4]: ≥ 80%
13 |  | CCSc1cc(C(F)(F)F)cnc1-c1cn(-c2cncc(C(F)(F)F)c2)nn1 [Compound P21] | ≥ 80 | ≥ 70 | 
14 |  | CCS(=O)(=O)c1cc(C(F)(F)F)cnc1-c1cn(-c2ccc(C(F)(F)F)nc2)nn1 [Compound P22] | ≥ 80 | ≥ 70 | percent control (mortality, anti-feedant effect or growth inhibition) at 200 ppm [1]: ≥ 80%; percent effect (mortality or growth inhibition) at 200 ppm [4]: ≥ 80%
15 |  | CCS(=O)(=O)c1cc(C(F)(F)F)cnc1-c1cn(-c2cncc(C(F)(F)F)c2)nn1 [Compound P23] | ≥ 80 | ≥ 70 | percent control (mortality, anti-feedant effect or growth inhibition) at 200 ppm [1]: ≥ 80%; percent effect (mortality, anti-feeding or growth inhibition) at 12.5 ppm [7]: ≥ 80%
16 |  | CCSc1cccnc1-c1cn(-c2ccc(C(F)(F)F)nc2)nn1 [Compound P24] | ≥ 80 | ≥ 70 | 
17 |  | CCS(=O)(=O)c1cccnc1-c1cn(-c2ccc(C(F)(F)F)nc2)nn1 [Compound P25] | ≥ 80 | ≥ 70 | percent effect (mortality or growth inhibition) at 200 ppm [5]: ≥ 80%; mortality at 24 ppm [8]: ≥ 80%; percent effect (mortality or growth inhibition) at 200 ppm [4]: ≥ 80%
18 | 138 to 140 | CCSc1ccc(Cl)nc1-c1cc(-c2cc(C(F)(F)F)ccn2)n(C)n1 [Compound P28] |  |  | 
19 | 255 to 257 | CCS(=O)(=O)c1ccc(Cl)nc1-c1cc(-c2cc(C(F)(F)F)ccn2)n(C)n1 [Compound P29] |  |  | 
20 | 171 to 173 | CCS(=O)(=O)c1cccnc1-c1cc(-c2cc(C(F)(F)F)ccn2)n(C)n1 [Compound P30] |  |  | 
21 | 238 to 240 | CCS(=O)(=O)c1ccc(-n2cncn2)nc1-c1cc(-c2cc(C(F)(F)F)ccn2)n(C)n1 [Compound P31] |  |  | 
22 | 136 to 138 | CCSc1ccc(Cl)nc1-c1cc(-c2ccc(C(F)(F)F)nc2)n(C)n1 [Compound P32, 6-chloro-3-ethylsulfanyl-2-[1-methyl-5-[6-(trifluoromethyl)-3-pyridyl]pyrazol-3-yl]pyridine] |  |  | 
23 | 198 to 200 | CCS(=O)(=O)c1ccc(Cl)nc1-c1cc(-c2ccc(C(F)(F)F)nc2)n(C)n1 [Compound P33, 6-chloro-3-ethylsulfonyl-2-[1-methyl-5-[6-(trifluoromethyl)-3-pyridyl]pyrazol-3-yl]pyridine] |  |  | 
24 | 160 to 162 | CCS(=O)(=O)c1cccnc1-c1cc(-c2ccc(C(F)(F)F)nc2)n(C)n1 [Compound P34, 3-ethylsulfonyl-2-[1-methyl-5-[6-(trifluoromethyl)-3-pyridyl]pyrazol-3-yl]pyridine] |  |  | 
25 | 175 to 177 | CCS(=O)(=O)c1ccc(-n2cncn2)nc1-c1cc(-c2ccc(C(F)(F)F)nc2)n(C)n1 [Compound P35, 3-ethylsulfonyl-2-[1-methyl-5-[6-(trifluoromethyl)-3-pyridyl]pyrazol-3-yl]-6-(1,2,4-triazol-1-yl)pyridine] |  |  | 
26 | 125 to 126 | CCSc1ccc(Cl)nc1-c1cc(-c2cncc(C(F)(F)F)c2)n(C)n1 [Compound P36] |  |  | 
27 | 152 to 153 | CCS(=O)(=O)c1ccc(Cl)nc1-c1cc(-c2cncc(C(F)(F)F)c2)n(C)n1 [Compound P37] |  |  | 
28 | 235 to 237 | CCS(=O)(=O)c1ccc(-n2cncn2)nc1-c1cc(-c2cncc(C(F)(F)F)c2)n(C)n1 [Compound P39] |  |  | 
